Data published in patent US20170143753A1, “SOPHOROLIPID ESTER CHAIN LENGTH DEPENDENCE ON THE INHIBITION OF HUMAN PATHOGENS” (Syntehzyme LLC, priority 2011, published 2017).
Values after ≈ are worked out from the molar mass of the structure shown. Like-named read-outs stand apart in the source and are kept apart here.

Experiments:
B. Subtilis = experiment: Minimum inhibitory concentration (MIC), broth microdilution; type: cell-based; settings: for MIC: Bacillus subtilis, read-out: Minimum Inhibitory Concentration (MIC) B. Subtilis; for activity against B. Subtilis (in words): MIC assay, up to 128 μg/mL
Protocol: (§1) Sophorolipid ester derivatives, as well as the diacetate lactonic sophorolipid have inhibitory activity against a range of human pathogenic bacteria, which was confirmed by experiments and observations. Sophorolipid samples were dissolved in pure DMSO to a final concentration of 2.56 mg/mL that was used as a stock solution. Except the first row, the wells of a 96-well microplate were loaded with 100 μL of sterilized PBS buffer. The stock solution (20 μL) and sterilized PBS buffer pH 7.4 (180 μL) was added into the first row of the 96-well microplate and serially diluted (2-fold dilution) from 256 μg/mL to 2 μg/mL using PBS buffer. After serial dilution, 100 μL of fresh bacteria cells (10^6 cfu/mL) suspended in Soy broth (SB) or Mueller Hinton broth (MHB) culture medium were added to each well and the plates were incubated for 16 or 30 hours. Wells with only cells in 5% DMSO in PBS/medium (no SL) and with only 5% DMSO in PBS/medium (no SL and no cells) were used as positive and negative controls, respectively. […] Lactonic SL as well as all SL esters except SL hexyl ester (no activity against all strains) and SL pentyl ester (no activity against B. Subtilis) were active against all three gram-positive bacterial strains tested (B. Cereus, B. Subtilis, Listeria innocua). The unexpected result in Table 2 is that, as the chain length of the sophorolipid ester increased from methyl to ethyl, propyl and butyl, the MIC values for B. Cereus, B. Subtilis and L. Innocua decrease. The pentyl ester has similarly low MIC values as the butyl ester derivative for B. Cereus and L. Innocua.

Listeria innocua = experiment: as above; type: cell-based; settings: for MIC: Listeria innocua, read-out: Minimum Inhibitory Concentration (MIC) Listeria Innocua; for activity against Listeria innocua (in words): MIC assay, up to 128 μg/mL
Protocol: as §1

B. Cereus = experiment: as above; type: cell-based; settings: for MIC: Bacillus cereus, read-out: Minimum Inhibitory Concentration (MIC) B. Cereus; for activity against B. Cereus (in words): MIC assay, up to 128 μg/mL
Protocol: as §1

human pathogen bacteria = experiment: Bactericidal activity (time-kill study); type: cell-based; settings: roughly 10^7 cfu/mL in PBS pH 7.4; for time to reach 3 log reduction: time-kill, 2×MIC and 4×MIC; for cells killed: at 2×MIC and 4×MIC, within 1 hour
Protocol: Bactericidal activity (time-kill study): an in vitro assay was performed to test the bactericidal effect of each sophorolipid derivatives on human pathogen bacteria viability. […] After 15 min, 45 min, 1 h and 3 h incubation, cells were spread on agar plates, incubated at 37° C. for 18 hours and examined for colonies. An untreated cells vial (i.e. no SL added) was used as the control.
To further investigate if the growth inhibition by sophorolipid derivatives is associated with cell death, i.e. if sophorolipid derivatives are bactericidal or bacteriostatic, time-kill studies were performed. […] Moreover, the killing rate was higher for these sophorolipid ester derivatives than natural di-acetylated lactonic sophorolipid that requires almost 2 hours to reach a 3 log reduction.

[1] = prior art statement; cited from earlier work
[2] = Solubility in water / aqueous systems (statement); type: physicochemical; settings: aqueous formulations
[3] = incubation time 16 h, 10^6 cfu/mL, no visible growth
[4] = incubation time 30 h, 10^6 cfu/mL, no visible growth

Row | Molecule | MIC (B. Subtilis; [3]) | MIC (Listeria innocua; [4]) | MIC (B. Cereus; [3]) | activity against B. Subtilis (in words) (B. Subtilis) | time to reach 3 log reduction (human pathogen bacteria) | cells killed (human pathogen bacteria) | also measured
1 | CCOC(=O)CCCCCCC/C=C\CCCCCCC(C)OC1OC(CO)C(O)C(O)C1OC1OC(CO)C(O)C(O)C1O (centres unmarked) [SL Ethyl ester] | 32 µg/mL (≈ 49.2 µM) | 32 µg/mL (≈ 49.2 µM) | 32 µg/mL (≈ 49.2 µM) |  |  |  | 
2 | CC(=O)OCC1OC2OC(C)CCCCCC/C=C\CCCCCCCC(=O)OC3C(COC(C)=O)OC(OC2C(O)C1O)C(O)C3O (centres unmarked) [Lactonic SL, LSL 6′,6″-diacetate, reference compound] | 8 µg/mL (≈ 11.6 µM) | 32 µg/mL (≈ 46.5 µM) | 16 µg/mL (≈ 23.2 µM) | active | ~2 hour |  | activity against Listeria innocua (in words) (Listeria innocua): active; activity against B. Cereus (in words) (B. Cereus): active; solubility in aqueous systems (in words) [1]: very low solubility; water solubility (in words) [2]: low water solubility
3 | SL Hexyl ester |  |  |  | no activity |  |  | Minimum Inhibitory Concentration (MIC) B. Subtilis (B. Subtilis; [3]): >128 µg/mL; activity against Listeria innocua (in words) (Listeria innocua): no activity; Minimum Inhibitory Concentration (MIC) Listeria Innocua (Listeria innocua; [4]): >128 µg/mL; activity against B. Cereus (in words) (B. Cereus): no activity; Minimum Inhibitory Concentration (MIC) B. Cereus (B. Cereus; [3]): >128 µg/mL
4 | SL Pentyl ester |  |  |  | no activity |  |  | Minimum Inhibitory Concentration (MIC) B. Subtilis (B. Subtilis; [3]): >128 µg/mL; Minimum Inhibitory Concentration (MIC) B. Subtilis (B. Subtilis; incubation time 16 h, 10^6 cfu/mL, no visible growth, listed as pentyl ester): > 128 µg/mL; Minimum Inhibitory Concentration (MIC) Listeria Innocua (Listeria innocua; [4]): 8 µg/mL; Minimum Inhibitory Concentration (MIC) B. Cereus (B. Cereus; [3]): 8 µg/mL
5 | CCCOC(=O)CCCCCCC/C=C\CCCCCCC(C)OC1OC(CO)C(O)C(O)C1OC1OC(CO)C(O)C(O)C1O (centres unmarked) [SL Propyl ester] | 25 µg/mL (≈ 37.6 µM) | 25 µg/mL (≈ 37.6 µM) | 16 µg/mL (≈ 24.1 µM) |  | ≤ 1 hour | more than 99.9% | 
6 | COC(=O)CCCCCCC/C=C\CCCCCCC(C)OC1OC(CO)C(O)C(O)C1OC1OC(CO)C(O)C(O)C1O (centres unmarked) [SL Methyl ester] |  |  |  |  | ≤ 1 hour | more than 99.9% | MIC (B. Subtilis; 16 h): 32 µg/mL (≈ 50.3 µM); MIC (Listeria innocua; 30 h): 64 µg/mL (≈ 101 µM); MIC (B. Cereus; 16 h): 32 µg/mL (≈ 50.3 µM)
7 | CCCCOC(=O)CCCCCCC/C=C\CCCCCCC(C)OC1OC(CO)C(O)C(O)C1OC1OC(CO)C(O)C(O)C1O (centres unmarked) [SL Butyl ester] | 8 µg/mL (≈ 11.8 µM) | 8 µg/mL (≈ 11.8 µM) | 8 µg/mL (≈ 11.8 µM) |  | ≤ 1 hour | more than 99.9% | 
